Our source for the IC50 values is patent US10689344B2, “Biphenylamide derivative Hsp90 inhibitors” (University of Kansas, priority 2013, dated 2020).

Experiment [1] relates to SKBr3 (estrogen receptor negative, HER2 over-expressing breast cancer cells). Kind of experiment: Anti-proliferation assay (MTS/PMS, 72 h), SKBr3. The format is cell-based. The note with it: Homo sapiens. Here is the method: (§1) Cells were maintained in a 1:1 mixture of Advanced DMEM/F12 (Gibco) supplemented with non-essential amino acids, L-glutamine (2 mM), streptomycin (500 μg/mL), penicillin (100 units/mL), and 10% FBS. Cells were grown to confluence in a humidified atmosphere (37° C., 5% CO2), seeded (2000/well, 100 μL) in 96-well plates, and allowed to attach overnight. Compound at varying concentrations in DMSO (1% DMSO final concentration) was added, and cells were returned to the incubator for 72 h. At 72 h, the number of viable cells was determined using an MTS/PMS cell proliferation kit (Promega) per the manufacturer's instructions. Cells incubated in 1% DMSO were used at 100% proliferation, and values were adjusted accordingly. IC50 values were calculated from separate experiments performed in triplicate using GraphPad Prism.
(§2) Anti-proliferative studies with the compounds described herein were performed against the SKBr3 (estrogen receptor negative, HER2 over-expressing breast cancer cells) and MCF-7 (estrogen receptor positive breast cancer cells) breast cancer cell lines. […] In some embodiments, in contrast to the novobiocin derivatives, which usually manifest better anti-proliferative activities against the SKBr3 cell line, the biphenyl derivatives described herein were more efficacious against the MCF-7 cell line. In general, all substitutions on the phenyl ring were determined to be beneficial, consistent with the existence of a hydrophobic pocket in this region of the Hsp90 C-terminal binding site.

Experiment [2] concerns MCF-7 (estrogen receptor positive breast cancer cells). Kind of experiment: Anti-proliferation assay (MTS/PMS, 72 h), MCF-7. In kind it is cell-based. Conditions: Homo sapiens. The protocol:
as §1, §2

Setting [3] is: SK-BR-3, Table 10, longer alkyl chain substituted biphenyl core.
[4] abbreviates: MCF7, Table 10, longer alkyl chain substituted biphenyl core.
Where [5] appears, read: SK-BR-3, Table 11, heteroatom linked biphenyl core.
[6] abbreviates: MCF7, Table 11, heteroatom linked biphenyl core.
Where [7] appears, read: SK-BR-3, Table 2, para-meta biphenyl core with substituted benzylamide.
The mark [8] stands for this setting: MCF7, Table 2, para-meta biphenyl core with substituted benzylamide.
[9] abbreviates: SK-BR-3, Table 1, ortho, meta and para biphenyl cores.
[10] abbreviates: MCF7, Table 1, ortho, meta and para biphenyl cores.
Setting [11] is: SK-BR-3, Table 4, para-para heteroatom substituted biphenyl core.
[12] abbreviates: MCF7, Table 4, para-para heteroatom substituted biphenyl core.
Setting [13] is: SK-BR-3, Table 3, substituted para-para biphenyl core.
The mark [14] stands for this setting: MCF7, Table 3, substituted para-para biphenyl core.

As a reminder, the IC50 is the concentration that inhibits the measured activity by half. A lower IC50 goes with greater potency. Regarding `CCCOc1ccc(C(=O)Nc2ccc(-c3ccc(OC4CCN(C)CC4)cc3)cc2)cc1-c1cccc(OC)c1`, the IC50 in experiment [1] (setting [3]) is 1.03 ± 0.04 µM; in experiment [2] (setting [4]), 1.66 ± 0.12 µM.
Taken in the same sequence, the figures for `COc1cccc(-c2cc(C(=O)Nc3ccc(-c4ccc(OC5CCN(C)CC5)c(CCC(C)C)c4)cc3)ccc2OC)c1` were 1.18 ± 0.04 µM and 1.43 ± 0.22 µM.
In the case of `CN1CCC(Oc2ccc(Nc3ccc(NC(=O)c4ccc(Cl)cc4)cc3)cc2)CC1`, the IC50 in experiment [1] (setting [5]) worked out at 6.44 ± 2.61 µM; in experiment [2] (setting [6]) it was 7.1 µM.
Taken in the same sequence, the figures for `CN1CCC(Oc2ccc(Nc3ccc(NC(=O)c4ccc(C(C)(C)C)cc4)cc3)cc2)CC1` were 2.17 ± 0.03 µM and 3.37 ± 1.63 µM.
With `CN1CCC(Oc2ccc(Nc3ccc(NC(=O)c4ccc5ccccc5c4)cc3)cc2)CC1`, the results for the IC50 in experiment [1] (setting [5]) and in experiment [2] (setting [6]) were 4.6 ± 0.25 µM and 2.15 ± 0.01 µM, respectively.
Regarding `CN1CCC(Oc2ccc(-c3cccc(NC(=O)c4ccccc4)c3)cc2)CC1` [Compound 6b, N-(4′-((1-methylpiperidin-4-yl)oxy)-[1,1′-biphenyl]-3-yl)benzamide], the IC50 in experiment [1] (setting [7]) turned out to be 18.9 ± 0.95 µM; in experiment [2] (setting [8]) it was 12 ± 0.57 µM.
The matching figures for `Cc1ccc(C(=O)Nc2cccc(-c3ccc(OC4CCN(C)CC4)cc3)c2)cc1` [Compound 6c, 4-methyl-N-(4′-((1-methylpiperidin-4-yl)oxy)-[1,1′-biphenyl]-3-yl)benzamide]: 5.27 µM and 3.92 ± 0.13 µM.
As to `Cc1cccc(C(=O)Nc2cccc(-c3ccc(OC4CCN(C)CC4)cc3)c2)c1` [Compound 6d, 3-methyl-N-(4′-((1-methylpiperidin-4-yl)oxy)-[1,1′-biphenyl]-3-yl)benzamide], the IC50 worked out at 11.4 ± 1.37 µM in experiment [1] (setting [7]) and 7.73 ± 1.9 µM in experiment [2] (setting [8]).
Turning to `CN1CCC(Oc2ccc(-c3cccc(NC(=O)c4ccc(C(C)(C)C)cc4)c3)cc2)CC1` [Compound 6e, 4-(tert-butyl)-N-(4′-((1-methylpiperidin-4-yl)oxy)-[1,1′-biphenyl]-3-yl)benzamide], the 50% inhibitory concentration (IC50) in experiment [1] (setting [9]) came to 1.51 ± 0.31 µM; in experiment [1] (setting [7]), 1.51 ± 0.31 µM; in experiment [2] (setting [10]) it was 3.45 ± 0.02 µM; in experiment [2] (setting [8]) it was 3.45 ± 0.02 µM.
As to `COc1ccc(C(=O)Nc2cccc(-c3ccc(OC4CCN(C)CC4)cc3)c2)cc1` [Compound 6f, 4-methoxy-N-(4′-((1-methylpiperidin-4-yl)oxy)-[1,1′-biphenyl]-3-yl)benzamide], the IC50 in experiment [1] (setting [9]) stood at 10.1 ± 0.93 µM; in experiment [1] (setting [7]), 10.1 ± 0.93 µM; in experiment [2] (setting [10]), 5.52 ± 0.01 µM; in experiment [2] (setting [8]), 5.52 ± 0.01 µM.
Regarding `COc1cccc(C(=O)Nc2cccc(-c3ccc(OC4CCN(C)CC4)cc3)c2)c1` [Compound 6g, 3-methoxy-N-(4′-((1-methylpiperidin-4-yl)oxy)-[1,1′-biphenyl]-3-yl)benzamide], the IC50 in experiment [1] (setting [7]) was 8.36 ± 1.35 µM; in experiment [2] (setting [8]), 4.5 ± 0.46 µM.
As for `CN1CCC(Oc2ccc(-c3cccc(NC(=O)c4ccc(Cl)cc4)c3)cc2)CC1` [Compound 6h, 4-Chloro-N-(4′-((1-methylpiperidin-4-yl)oxy)-[1,1′-biphenyl]-3-yl)benzamide], the IC50 in experiment [1] (setting [9]) was 3.63 ± 1.03 µM; in experiment [1] (setting [7]) it was 3.63 ± 1.03 µM; in experiment [2] (setting [10]), 2.23 ± 0.05 µM; in experiment [2] (setting [8]), 2.23 ± 0.05 µM.
In the case of `CN1CCC(Oc2ccc(-c3cccc(NC(=O)c4cccc(Cl)c4)c3)cc2)CC1` [Compound 6i, 3-Chloro-N-(4′-((1-methylpiperidin-4-yl)oxy)-[1,1′-biphenyl]-3-yl)benzamide], the IC50 in experiment [1] (setting [7]) turned out to be 4.29 ± 0.43 µM; in experiment [2] (setting [8]) it was 2.11 ± 0.42 µM.
The matching figures for `CN1CCC(Oc2ccc(-c3cccc(NC(=O)c4ccccc4Cl)c3)cc2)CC1` [Compound 6k, 2-Chloro-N-(4′-((1-methylpiperidin-4-yl)oxy)-[1,1′-biphenyl]-3-yl)benzamide]: 7.87 ± 0.48 µM and 5.17 ± 0.49 µM.
The matching figures for `CN1CCC(Oc2ccc(-c3cccc(NC(=O)c4ccc(Cl)cc4Cl)c3)cc2)CC1` [Compound 6n, 2,4-Dichloro-N-(4′-((1-methylpiperidin-4-yl)oxy)-[1,1′-biphenyl]-3-yl)benzamide]: 5.91 ± 0.15 µM and 3.93 ± 0.47 µM.
As for `CN1CCC(Oc2ccc(-c3cccc(NC(=O)c4cc(Cl)cc(Cl)c4)c3)cc2)CC1` [Compound 6o, 3,5-Dichloro-N-(4′-((1-methylpiperidin-4-yl)oxy)-[1,1′-biphenyl]-3-yl)benzamide], the IC50 in experiment [1] (setting [7]) is 4.23 ± 0.09 µM; in experiment [2] (setting [8]) it was 3.72 ± 0.15 µM.
The matching figures for `CN1CCC(Oc2ccc(-c3cccc(NC(=O)c4cccc5ccccc45)c3)cc2)CC1` [Compound 6p, N-(4′-((1-methylpiperidin-4-yl)oxy)-[1,1′-biphenyl]-3-yl)-1-naphthamide]: 1.64 ± 0.13 µM and 1.1 ± 0.17 µM.
Taken in the same sequence, the figures for `CN1CCC(Oc2ccc(-c3cccc(NC(=O)c4ccc5ccccc5c4)c3)cc2)CC1` [Compound 6q] were 2.09 ± 0.34 µM and 1.66 ± 0.27 µM.
Consider `COc1cccc(-c2cc(C(=O)Nc3ccc(-c4ccc(OC5CCN(C)CC5)nc4)cc3)ccc2OC)c1` [Compound 19a, 3′,6-dimethoxy-N-(4-(6-((1-methylpiperidin-4-yl)oxy)pyridin-3-yl)phenyl)-[1,1′-biphenyl]-3-carboxamide], for which the half-inhibitory concentration (IC50) in experiment [1] (setting [11]) is 1.67 ± 0.09 µM; in experiment [2] (setting [12]), 1.56 ± 0.19 µM.
The matching figures for `COc1cccc(-c2cc(C(=O)Nc3ccc(-c4ccc(OC5CCN(C)CC5)cn4)cc3)ccc2OC)c1` [Compound 19b, 3′,6-dimethoxy-N-(4-(5-((1-methylpiperidin-4-yl)oxy)pyridin-2-yl)phenyl)-[1,1′-biphenyl]-3-carboxamide]: 1.91 ± 0.21 µM and 1.3 ± 0.15 µM.
`COc1cccc(-c2cc(C(=O)Nc3ccc(-c4ccc(OC5CCN(C)CC5)cc4)nc3)ccc2OC)c1` [Compound 19c, 3′,6-dimethoxy-N-(6-(4-((1-methylpiperidin-4-yl)oxy)phenyl)pyridin-3-yl)-[1,1′-biphenyl]-3-carboxamide]: the values for the IC50 in experiment [1] (setting [11]) and in experiment [2] (setting [12]) were 1.21 ± 0.13 µM and 1.02 ± 0.01 µM, respectively.
Regarding `COc1cccc(-c2cc(C(=O)Nc3ccc(-c4ccc(OC5CCN(C)CC5)cc4)cn3)ccc2OC)c1` [Compound 19d, 3′,6-dimethoxy-N-(5-(4-((1-methylpiperidin-4-yl)oxy)phenyl)pyridin-2-yl)-[1,1′-biphenyl]-3-carboxamide], the IC50 amounted to 1.07 ± 0.01 µM in experiment [1] (setting [11]) and 1.02 ± 0.01 µM in experiment [2] (setting [12]).
Consider `COc1cccc(-c2cc(C(=O)Nc3ccc(-c4ccc(OC5CCN(C)CC5)c(C)c4)cc3)ccc2OC)c1` [Compound 29a, 3′,6-dimethoxy-N-(3′-methyl-4′-((1-methylpiperidin-4-yl)oxy)-[1,1′-biphenyl]-4-yl)-[1,1′-biphenyl]-3-carboxamide], for which the IC50 in experiment [1] (setting [13]) came out at 0.83 ± 0.03 µM; in experiment [2] (setting [14]), 1.69 ± 0.08 µM.
Taken in the same sequence, the figures for `COc1cccc(-c2cc(C(=O)Nc3ccc(-c4ccc(OC5CCN(C)CC5)cc4C)cc3)ccc2OC)c1` [Compound 29b, 3′,6-dimethoxy-N-(2′-methyl-4′-((1-methylpiperidin-4-yl)oxy)-[1,1′-biphenyl]-4-yl)-[1,1′-biphenyl]-3-carboxamide] were 1.18 ± 0.11 µM and 1.21 ± 0.03 µM.
`COc1cccc(-c2cc(C(=O)Nc3ccc(-c4ccc(OC5CCN(C)CC5)cc4)c(C)c3)ccc2OC)c1` [Compound 29c, 3′,6-dimethoxy-N-(2-methyl-4′-((1-methylpiperidin-4-yl)oxy)-[1,1′-biphenyl]-4-yl)-[1,1′-biphenyl]-3-carboxamide]: the figures for the IC50 in experiment [1] (setting [13]) and in experiment [2] (setting [14]) were 0.97 ± 0.01 µM and 1.57 ± 0.56 µM, respectively.
On to `COc1cccc(-c2cc(C(=O)Nc3ccc(-c4ccc(OC5CCN(C)CC5)cc4)cc3C)ccc2OC)c1` [Compound 29d, 3′,6-dimethoxy-N-(3-methyl-4′-((1-methylpiperidin-4-yl)oxy)-[1,1′-biphenyl]-4-yl)-[1,1′-biphenyl]-3-carboxamide], for which the IC50 is 2.47 ± 0.39 µM in experiment [1] (setting [13]) and 1.43 ± 0.35 µM in experiment [2] (setting [14]).
The matching figures for `COc1cccc(-c2cc(C(=O)Nc3ccc(-c4ccc(OC5CCN(C)CC5)c(OC)c4)cc3)ccc2OC)c1` [Compound 29e, 3′,6-dimethoxy-N-(3′-methoxy-4′-((1-methylpiperidin-4-yl)oxy)-[1,1′-biphenyl]-4-yl)-[1,1′-biphenyl]-3-carboxamide]: 0.68 ± 0.13 µM and 1.32 ± 0.08 µM.
The matching figures for `COc1cccc(-c2cc(C(=O)Nc3ccc(-c4ccc(OC5CCN(C)CC5)cc4OC)cc3)ccc2OC)c1` [Compound 29f, 3′,6-dimethoxy-N-(2′-methoxy-4′-((1-methylpiperidin-4-yl)-oxy)-[1,1′-biphenyl]-4-yl)-[1,1′-biphenyl]-3-carboxamide]: 1.41 ± 0.35 µM and 1.35 ± 0.16 µM.
As to `COc1cccc(-c2cc(C(=O)Nc3ccc(-c4ccc(OCCC5CCCN5C)cc4)cc3)ccc2OC)c1` (stereo not drawn) [Compound 56d, 3′,6-dimethoxy-N-(4′-(2-(1-methylpyrrolidin-2-yl)ethoxy)-[1,1′-biphenyl]-4-yl)-[1,1′-biphenyl]-3-carboxamide], half-maximal inhibition in experiment [1] (SK-BR-3, Table 7, para-para biphenyl core with modified ether groups) (IC50) was put at 1.75 ± 0.24 µM.
